Patent publication US8278033B2, “Efficient well being assessment and improved treatment protocol” (priority 2008, dated 2012)
Several values for one entry are separate records, joined by “and”; a condition that tells them apart may be missing. Identical values can stand only once.

What was measured:
endothelial cells [1] = experiment: Anti-vascular score (AVS) on Fast Green/H&E slides of tumor cell cultures, averaged over paired comparisons; assay type: cell-based, human; design: key to Anti-Vascular Score (AVS) (Avg): 10x the 0+ to 5+ anti-microvascular score (max 50); key to AVS minus VAVS (Avg): AVS minus vehicle AVS, on 10x the 0+ to 5+ scale; settings: for AVS minus VAVS (Avg): AVS corrected for the effect of vehicle by subtraction; for AVS minus VAVS (Avg) / (AVS − VAVS)/AT Ratio (Avg): concentrations as in Table 1; for Anti-Vascular Score (AVS) (Avg): 10x multiples of the 0+ to 5+ score, average of N paired comparisons, bevacizumab 2.5 mg/ml, DMSO 0.5% + EtOH 0.5%, cisplatin 3.3, sunitinib 8.35, gefitinib 22.35, erlotinib 89.4, sorafenib 12.5, imatinib 12.5 μg/ml; for (AVS − VAVS)/AT Ratio (Avg): ratio of vehicle-corrected AVS to antitumor score
Procedure: (§1) Solid tumors are minced to pieces smaller than 1 mm (small enough to be aspirated into a standard disposable 10 ml pipette) with high quality curved surgical scissors. Medium in which said tumors may have been transported is reserved, along with the supernatant from the tissue mince. Scissor-minced tumor pieces are digested with collagenase/DNase in RPMI-1640 containing antibiotics and 10% fetal calf serum. Specimens are digested in 50 ml disposable polypropylene centrifuge tubes, assisted by gentle mixing with plastic-coated, magnetic stirring bars over a stirring plate. Specimens are thusly mixed until complete gross digestion has taken place—typically about 2-3 hours for a 1-3 gram specimen. Cytospin slides are then prepared from all cell fractions (transport medium, supernatant from tissue mince, and enzyme digestate), and stained with fast green-H&E, as described previously (Weisenthal, et al., “A Novel Dye Exclusion Method for Testing in vitro Chemosensitivity of Human Tumors,” Cancer Res. (1983) 43:749-757).
Final volume of cell suspension/drug solution (or vehicle) plated for culture can be 0.12 ml. Culturing is in polypropylene round bottom, 96-well culture dishes in a humidified 37° C. incubator for a standardized duration of time.
Cells are cultured with the index concentration of each drug and, if desired, with dilutions of the index concentration, where the index concentration is determined from training set assays or from the literature. […] Replicate 96-well plates are tested.
The various drugs were rated by scoring on a 0+ to 5+ scale for the anti-microvascular effects, with 5+ being the highest possible score. […] The “nib” drugs are kinase inhibiting drugs.
(§2) For this determination, the results provided in Table 1 are 10× multiples of the scoring system of the previous paragraph.
(§3) The scores provided in FIG. 2 were multiplied by 10 and averaged to give an anti-vascular score (AVS) shown in column 2; the average AVS for the vehicle alone (VAVS) is shown in column 3 and the level of the statistical significance of their difference is shown in column 4. The AVS score was corrected for the effect of vehicle by subtraction as shown in column 5. The antitumor score (AT) is shown in column 6.
Finally, the ratio of AVS (corrected for the effect of vehicle) to the antitumor score is shown in the last column.

tumor cells [2] = experiment: Direct antitumor (AT) score on slides of tumor cell cultures; assay type: cell-based, human; settings: direct antitumor effects; concentrations as in Table 1
Procedure: as §1
To assay for endothelial cells are mixed with, for example, 10% (volume/volume) or, for example, 1% (volume/volume) or intermediate percentages of antiangiogenic drug containing solution or vehicle control (most typically 0.9% NaCl). Final volume of cell suspension/drug solution (or vehicle) plated for culture can be 0.12 ml. Culturing is in polypropylene round bottom, 96-well culture dishes in a humidified 37° C. incubator for a standardized duration of time.
Cells are cultured with the index concentration of each drug and, if desired, with dilutions of the index concentration, where the index concentration is determined from training set assays or from the literature. Negative controls generally consist of 0.9% NaCl, and/or the vehicle in which an antiangiogenic drug is dissolved. Replicate 96-well plates are tested.
as §2, §3

endothelial cells [3] = experiment: Endothelial cell killing by drugs and combinations in a poorly differentiated breast cancer specimen; assay type: cell-based, human; settings: for effectiveness in endothelial cell killing (in words): Fast Green/H&E
From the text: A specimen of poorly differentiated breast cancer was used in the procedures set forth in the previous examples and tested with various drugs and drug combinations as described above.

endothelial cells [4] = experiment: Anti-microvascular effects in non-Hodgkin's Lymphoma lymph node biopsy culture (ImageJ and manual scores); assay type: cell-based, human; settings: for anti-microvascular activity (in words) / concentration at which anti-angiogenic cell effects were achievable: NHL lymph node biopsy sample; for anti-microvascular activity (in words): FIG. 6; for concentration at which anti-angiogenic cell effects were achievable: FIG. 7
From the text: (§4) A lymph node biopsy was obtained from a non-Hodgkin's Lymphoma patient and processed and stained as described above. […] The cells can also be imaged using publicly available “ImageJ” software available from the National Institutes of Health (NIH) to assist quantitation. The image is converted to 8-bit black and white threshold gated to paint only the dead endothelial cells.
The raw scores for the gated features (putative dead endothelial cells) are normalized for uneven cell distributions by image analyzing each area twice: first with the detection threshold set to gate only the features of interest (putative dead endothelial cells) and then again to detect all features on the slide (this would be analogous to normalizing gene copy to total DNA in cell extracts).

[5] = tested on: non-Hodgkin's Lymphoma (NHL) cells; experiment: Direct antitumor cell effects in non-Hodgkin's Lymphoma lymph node biopsy culture; assay type: cell-based, human; settings: NHL lymph node biopsy sample, FIG. 6
From the text: as §4
(§5) The objective, automated ImageJ scores for both individual gated features and also for total area (originally in pixels squared) is shown. The raw scores for the gated features (putative dead endothelial cells) are normalized for uneven cell distributions by image analyzing each area twice: first with the detection threshold set to gate only the features of interest (putative dead endothelial cells) and then again to detect all features on the slide (this would be analogous to normalizing gene copy to total DNA in cell extracts). Shown additionally are the subjective (0+ to 5+) manual anti-vascular scores which were obtained one month before the installed the ImageJ software was installed. Shown additionally are the direct antitumor cell effects of each of the drugs and solvents tested.

endothelial cells [6] = experiment: Anti-microvascular effect scoring, Fast Green/H&E stained pancreatic carcinoid tumor suspension culture; assay type: cell-based, human
Procedure: as §1
Final volume of cell suspension/drug solution (or vehicle) plated for culture can be 0.12 ml. […]
Cells are cultured with the index concentration of each drug and, if desired, with dilutions of the index concentration, where the index concentration is determined from training set assays or from the literature. […]

endothelial cells [7] = experiment: Endothelial cell death in cultured peripheral blood chronic lymphocytic leukemia cells; assay type: cell-based, human; settings: peripheral blood CLL cells cultured 4 days, 2.5 mg/ml
From the text: They are readily apparent as refractile, angular small cells of smaller dimension than the surrounding cells. These cells are about one-third the size of lymphocytes and are about 3μ in diameter.

endothelial cells [8] = experiment: ImageJ quantitation of dead endothelial cells in cultured lymph samples; assay type: cell-based, human; settings: all of the lymphoma patients
From the text: as §4, §5
Lymph samples from five lymphoma patients and two normal volunteers were cultured and stained as described above. […] The quantitation of results was as described in Example 4 using ImageJ software.

[9] = tested on: vascular endothelial growth factor (VEGF); experiment: Level of VEGF in tumor cell cultures (optical density 450 nm minus 570 nm); assay type: cell-based, human
Procedure: The observed ability of EtOH/DMSO to effect killing of microvascular/endothelial cells may be due to the ability of these solvents to reduce the levels of VEGF in cell culture. It is known that tumor cells secrete VEGF and VEGF is needed, for the growth of neovasculature. Accordingly, a number of tumor cell cultures were treated with these solvents. The level of VEGF in the cultures was measured by subtracting the optical density at 570 nm from the optical density of 450 nm.
For tumor samples preserved in 10% DMSO, only very low levels of VEGF were observed. […] Of particular interest are the cells from Patient 6, shown at the end of the table.

endothelial cells [10] = settings: microaggregates of tumor biopsies, WO 2007/075440; cited from earlier work
tumor cells [11] = settings: microaggregates of tumor biopsies, WO 2007/075440; cited from earlier work

Cc1ccc(NC(=O)c2ccc(CN3CCN(C)CC3)cc2)cc1Nc1nccc(-c2cccnc2)n1 [Imatinib, imatinib]
AVS minus VAVS (Avg) (endothelial cells [1]): 2.8
Anti-Tumor (AT) Score (Avg) (tumor cells [2]): 23.6
effectiveness in endothelial cell killing (in words) (endothelial cells [3]): None appeared particularly effective
anti-microvascular activity (in words) (endothelial cells [4]): comparable to those of vehicle alone
direct antitumor activity (in words) [5]: acted directly on tumor cells

N.N.[Cl][Pt][Cl] [Cisplatin]
Anti-Vascular Score (AVS) (Avg) (endothelial cells [1]): 4.5
AVS minus VAVS (Avg) (endothelial cells [1]): 0.6
(AVS − VAVS)/AT Ratio (Avg) (endothelial cells [1]): 0.01
Anti-Tumor (AT) Score (Avg) (tumor cells [2]): 59.2

bevacizumab
endothelial cell death (appearance after Fast Green/H&E) (endothelial cells [6]; pancreatic carcinoid tumor, 96 hours in suspension culture, 2.5 mg/ml): resulting in endothelial cell death
Anti-Vascular Score (AVS) (Avg) (endothelial cells [1]): 24.7
AVS minus VAVS (Avg) (endothelial cells [1]): 19.7
Anti-Tumor (AT) Score (Avg) (tumor cells [2]): 12.9
anti-microvascular score (endothelial cells [3]; drug alone): +1
endothelial cell death (endothelial cells [7]): caused endothelial cell death
dead endothelial cells (200x view) (endothelial cells [4]; NHL lymph node biopsy cells cultured 4 days): presence of dead endothelial cells is readily apparent
direct antitumor activity (in words) [5]: essentially no direct antitumor effects
visibility of endothelial cells (in words) (endothelial cells [8]): greatly enhanced
450-570 O.D. (level of VEGF) ([9]; Pt 1 cells (Merkel tumor, 10% DMSO cryopreserved), 1.25 mg/ml, wells #1-#3, listed as Bev): 0.054 and 0.059
450-570 O.D. (level of VEGF) ([9]; Pt 1 cells (Merkel tumor, 10% DMSO cryopreserved), 2.5 mg/ml, wells #1-#3, listed as Bev): 0.051 and 0.052 and 0.054
450-570 O.D. (level of VEGF) ([9]; Pt 2 cells (ovarian, 10% DMSO cryopreserved), 1.25 mg/ml, wells #1-#3, listed as Bev): 0.059 and 0.055 and 0.054
450-570 O.D. (level of VEGF) ([9]; Pt 2 cells (ovarian, 10% DMSO cryopreserved), 2.5 mg/ml, wells #1-#3, listed as Bev): 0.052 and 0.056 and 0.054
450-570 O.D. (level of VEGF) ([9]; Pt 3 cells (breast, fresh), 2.5 mg/ml, wells #1-#2, listed as Bev): 0.056 and 0.059
450-570 O.D. (level of VEGF) ([9]; Pt 4 cells (NHL, fresh), 1.25 mg/ml, wells #1-#2, listed as Bev): 0.074 and 0.068
450-570 O.D. (level of VEGF) ([9]; Pt 4 cells (NHL, fresh), 2.5 mg/ml, wells #1-#2): 0.055
450-570 O.D. (level of VEGF) ([9]; Pt 5 cells (breast, fresh), 2.5 mg/ml, well #1): 0.053
450-570 O.D. (level of VEGF) ([9]; Pt 6 cells (breast, fresh), 1.25 mg/ml, well #1): 0.063
450-570 O.D. (level of VEGF) ([9]; Pt 6 cells (breast, fresh), 2.5 mg/ml, well #1): 0.052
levels of VEGF (in words) ([9]; fresh breast tumor cells, untreated levels off-scale): could be brought to 0
effect on endothelial cells (in words) (endothelial cells [10]): endothelial cells showing up dead
effect on tumor cells (in words) (tumor cells [11]): tumor cells remain unaffected

CCN(CC)CCNC(=O)c1c(C)[nH]c(/C=C2\C(=O)Nc3ccc(F)cc32)c1C [Sunitinib, sunitinib]
Anti-Vascular Score (AVS) (Avg) (endothelial cells [1]): 9.5
AVS minus VAVS (Avg) (endothelial cells [1]): 4.9
(AVS − VAVS)/AT Ratio (Avg) (endothelial cells [1]): 0.19
Anti-Tumor (AT) Score (Avg) (tumor cells [2]): 25.8

COc1cccc2c1C(=O)c1c(O)c3c(c(O)c1C2=O)C[C@@](O)(C(=O)CO)C[C@@H]3O[C@H]1C[C@H](N)[C@H](O)[C@H](C)O1 [doxorubicin]
anti-microvascular activity (in words) (endothelial cells [4]): relatively ineffective as anti-microvascular agents
direct antitumor activity (in words) [5]: direct antitumor effects

COc1cc2ncnc(Nc3ccc(F)c(Cl)c3)c2cc1OCCCN1CCOCC1 [Gefitinib, gefitinib]
anti-microvascular effects score (0+ to 5+ scale) (endothelial cells [6]; pancreatic carcinoid tumor suspension culture, bevacizumab at 2.5 mg/ml, Fast Green/H&E): 0
Anti-Vascular Score (AVS) (Avg) (endothelial cells [1]): 8.3
AVS minus VAVS (Avg) (endothelial cells [1]): 4.5
(AVS − VAVS)/AT Ratio (Avg) (endothelial cells [1]): 0.16
Anti-Tumor (AT) Score (Avg) (tumor cells [2]): 28.5

CNC(=O)c1cc(Oc2ccc(NC(=O)Nc3ccc(Cl)c(C(F)(F)F)c3)cc2)ccn1 [Sorafenib, sorafenib]
AVS minus VAVS (Avg) (endothelial cells [1]): 1.4
Anti-Tumor (AT) Score (Avg) (tumor cells [2]): 28.7
anti-microvascular activity (in words) (endothelial cells [4]): comparable to those of vehicle alone
direct antitumor activity (in words) [5]: acted directly on tumor cells

C[S+](C)[O-] [DMSO]
concentration at which anti-angiogenic cell effects were achievable (endothelial cells [4]): 0.125 % of the final medium

CCO [ethanol]
concentration at which anti-angiogenic cell effects were achievable (endothelial cells [4]): 0.125 % of the final medium

C#Cc1cccc(Nc2ncnc3cc(OCCOC)c(OCCOC)cc23)c1 [Erlotinib, erlotinib]
Anti-Vascular Score (AVS) (Avg) (endothelial cells [1]): 16.2
AVS minus VAVS (Avg) (endothelial cells [1]): 4.2
(AVS − VAVS)/AT Ratio (Avg) (endothelial cells [1]): 0.19
Anti-Tumor (AT) Score (Avg) (tumor cells [2]): 22.5
effectiveness in endothelial cell killing (in words) (endothelial cells [3]): None appeared particularly effective
anti-microvascular activity (in words) (endothelial cells [4]): comparable to those of vehicle alone
direct antitumor activity (in words) [5]: to a lesser extent, erlotinib acted directly on tumor cells
